Measurements as given in patent US20210032291A1, “Compstatin Analogs With Improved Pharmacokinetic Properties” (The Trustees of the University of Pennsylvania, priority 2011, published 2021).
In brackets after ≈: the same amount, converted by molar mass. Like-named read-outs stand apart in the source and are kept apart here. Bridge positions count the residues as written; N and C are the ends. Square brackets hold non-standard residues; d marks the D form. Peptide text beside a SMILES is read from it. Trp(1-Me) = Cn1cc(C[C@H](N)C(=O)O)c2ccccc21; NMeI = CC[C@H](C)[C@H](NC)C(=O)O; Sar = CNCC(=O)O

Key:
[1] = tested on: classical pathway of complement; assay: ELISA inhibition of classical pathway complement activation; type: biochemical; conditions: read-out: IC50, peptide concentration to reach 50% inhibition of classical pathway complement activation; Table 1
Procedure: Inhibition of complement activation. The ability of the compstatin analogs to inhibit the activation of the classical pathway of complement was assessed by ELISA as described elsewhere (Katragadda et al., 2006, supra; Mallik et al., 2005, supra). The percent inhibition was plotted against the peptide concentration, and the resulting data set was fitted to the logistic dose-response function using Origin 8.0 software. IC50 values were obtained from the fitted parameters that produced the lowest χ2 value. Each analog was assayed at least three times.

[2] = Solubility in WFI and DPBS; UPLC C18 retention time as hydrophobicity; conditions: for solubility at 5 min: pH 7.4; for Hydrophobicity Retention Time: UPLC analysis on a C18 column
Procedure: Approximately 5 mg of each peptide (acetate form) was weighed out into separate LoBind Eppendorf tubes and 50 μL water for injection (WFI) was added to each tube. Each sample was centrifuged at 13000 rpm for 2 min and diluted for measuring the optical density (OD) at 280 nm using a NanoDrop 2000 spectrophotometer (ThermoScientific, Wilmington, Del.). Each concentrated sample was diluted 1:20 into Dulbecco's phosphate buffered saline (DPBS, without potassium and calcium; Invitrogen, Carlsbad, Calif.). The samples were monitored for precipitation, and each sample was vortexed for 5 min and centrifuged at 13000 rpm for 2 min. The OD of each DPBS supernatant was measured to determine peptide concentration at saturation.
In addition, the ultra performance liquid chromatography (UPLC) retention time of these peptides on a C18 column was measured to reflect their apparent relative hydrophobicity (Table 3).

C3b [3] = molecular target: T1, C3b (Homo sapiens, UniProt P01024); conditions: value from previous publication (WO2010/127336), cited from earlier work
T1 construct: Biotinylated C3b was captured site-specifically on a streptavidin chip

C3b [4] = molecular target: T1, C3b; assay: SPR kinetic analysis of binding to immobilized C3b (Biacore, single cycle kinetics); conditions: for ka: association rate / Kd / koff: Table 1, N-terminal analogs; for Kd: read-out: KD: binding constant from SPR; for koff: read-out: kd: dissociation rate
Procedure: SPR analysis. The interaction of the compstatin analogs with C3b was characterized using a Biacore 3000 instrument (GE Healthcare, Corp., Piscataway, N.J.). The running buffer was PBS, pH 7.4 (10 mM sodium phosphate, 150 mM NaCl) with 0.005% Tween-20. Biotinylated C3b was captured site-specifically on a streptavidin chip at about 3000 and 5000 RU density; two untreated flow cells were used as reference surface. For kinetic analysis, sets of five increasing concentrations of a particular compound were injected over the chip surface one after the other in a single cycle. […] Processed biosensor data were globally fitted to a 1:1 Langmuir binding model (kindly provided by GE Helthcare), and the equilibrium dissociation constant (KD) was calculated from the equation KD=kd/ka. Each assay was performed at least twice.

in vivo = assay: in vivo; parameters: species or system baboons (P. Anubis); conditions: baboon (P. Anubis), iv, 10 mg
Procedure: Juvenile baboons (P. Anubis, Baboon Research Resources, University of Oklahoma) weighing 5-8 kg were used. Two baboons were used for the study, one for each compound. Each animal received a bolus dose of peptide (10 mg) by injection through the peripheral vein. Blood samples for the LC-MS/MS assay were collected in 1-ml plastic tubes containing […] lepirudin, and centrifuged at 2000 g for 20 min at 4° C. for plasma separation. Plasma samples were stored at −70° C. Blood samples were collected at pre-determined time intervals after injection of Cp30 (SEQ ID NO:7) or the Cp30 (SEQ ID NO:7)-ABM2 conjugate. Samples were treated with SPE and analyzed using LC-MS/MS. Calibration curves were created using standard peptides at various concentrations in plasma to determine peptide concentration in each sample.
Extraction of compstatin analogs from plasma samples by SPE. […] Samples were diluted with 4% H3PO4. After loading a sample, washing was carried out with 500 μL of water and 10% ACN with 0.1% formic acid. […] Samples for LC-MS were diluted 1:2 to 1:11 in milli-Q water with 10% ACN with 0.1% formic acid.
LC-MS/MS analysis. […] Each sample was injected in triplicate. […] The analytical column temperature was held at 40° C. Peptides were separated at flow rate 0.15 mL/min. The gradient was linear 15-55% B (0.1% formic acid in acetonitrile) over 7 min.

[5] = Plasma levels and half-life after i.v. injection in cynomolgus monkeys; conditions: 2 mg/kg i.v., terminal log-linear portion (1-24 h)
Procedure: Primate studies and sample collection. Evaluation of plasma half-life and generation of major metabolites was performed at the Simian Conservation Breeding and Research Center (SICONBREC, Makati City, Philippines) in cynomolgus monkeys (Macaca fascicularis). […] Blood samples (1-2 mL) were collected immediately before and at various time points after compound injection (2, 5 and 30 min; 1, 2, 4, 6, and 24 hours) in EDTA-coated Vacutainer tubes to prevent coagulation and complement activation, and centrifuged at ˜800×g for 10 min to obtain plasma. Plasma samples were immediately frozen and stored for further analysis. All NHP studies were performed in accordance with animal welfare laws and regulations.
Analysis of plasma samples. Prior to analysis by UPLC-MS, compstatin analogs in the plasma samples were extracted by solid phase extraction (SPE) in a 96-well plate format (HLB Oasis 30 μm, 10 mg; Waters, Milford, Mass.). […] Eluted peptides were directly analyzed by HDMS; the ESI source capillary voltage was set to 3.2 kV, the cone voltage to 30 V and the source temperature to 120° C. […]
Determination of plasma half-life. […] All calibration samples were subjected to SPE and measured using UPLC-HDMS as described above. […] For the pharmacokinetic analysis, the plasma concentration (Cp) at each time point was calculated from the extracted peak area of each peptide using the corresponding standard curve.

C3 = molecular target: T2, C3 (Homo sapiens, UniProt P01024); assay: Plasma protein binding in human plasma (PEG precipitation, Mono Q FPLC, UPLC-MS); type: in vitro ADME; conditions: 20 μM peptide, Mono Q fractions
T2 construct: from tissue; host or cells: fresh human plasma (lepirudin-anticoagulated)
Procedure: Plasma protein binding. Cp30 (SEQ ID NO:7) was spiked in 500 μL of fresh human plasma containing lepirudin (3.75 units/nil) so that the final peptide concentration was 20 μM (C3: 1.2 mg/mL, 6.4 μm). A control sample was prepared in the same way using Cp30 (SEQ ID NO:7) and milli-Q water to determine the area of peptide in UPLC-MS at 1 μM. The plasma sample was equilibrated at room temperature for 10 min. Then, 500 μL of 30% PEG in milli-Q water (MW3350) was slowly added to the plasma sample while mixing. The mixture was centrifuged at 14000 rpm for 10 min to separate the supernatant. The pellet was dissolved in 1000 μL of FPLC buffer A and separated by FPLC using Mono Q 5/5 column and fractions was collected at 1 mL per tube. 0.5 mL of each fraction was mixed with same volume off 4% H3PO4 for SPE and UPLC-MS analysis.
UPLC-MS analysis. […] Each sample was injected in quadruplicates. […] The analytical column temperature was held at 40° C.

[6] = Stability in human plasma at 37° C. (SPE, UPLC-MS); conditions: fresh human plasma
Procedure: Plasma stability. Fresh human plasma containing lepirudin (3.75 units/ml) was incubated at 37° C. with Cp30 (SEQ ID NO:7), Cp40 (SEQ ID NO:18) or control peptide 2B at a final concentration of 20 μM each. Samples of 100 μL were taken for solid phase extraction. A 96-well plate HLB Oasis 30 μm 10 mg (Waters, Milford, Mass.) was employed for extraction. The SPE material was conditioned by addition of 500 μL each of methanol and ACN followed by addition of 500 μL of milli-Q water. Sample was diluted 1:1 with 4% H3PO4. After loading the sample, washing was carried out twice with 500 μL of 10% ACN in 0.1% formic acid. Sample was eluted with 200 μL of 65% ACN in 0.1% formic acid and collected in the Eppendorf LoBind collection plate. Sample for UPLC-MS was diluted 1:10 in milli-Q water with 0.1% formic acid. Cp20 (SEQ ID NO:3) was spiked in each sample before SPE as an internal standard.
UPLC-MS analysis. UPLC-MS analysis was performed on a SYNAPT HDMS (Waters, Milford, Mass.) equipped with an ESI source controlled by MassLynx 4.1 software (Waters). Each sample was injected in quadruplicates. An online ACQUITY UPLC (Waters) system was used for peptide separation by reversed-phase liquid chromatography. The capillary voltage was 3.2 kV, the cone voltage was 30 V and the source temperature was 120° C. [Glu1]-fibrinogen peptide was used for lock-mass correction with a sampling rate of 30 s. […]

[7] = Dulbecco's phosphate buffered saline

T2 sequence (P01024 23-1663): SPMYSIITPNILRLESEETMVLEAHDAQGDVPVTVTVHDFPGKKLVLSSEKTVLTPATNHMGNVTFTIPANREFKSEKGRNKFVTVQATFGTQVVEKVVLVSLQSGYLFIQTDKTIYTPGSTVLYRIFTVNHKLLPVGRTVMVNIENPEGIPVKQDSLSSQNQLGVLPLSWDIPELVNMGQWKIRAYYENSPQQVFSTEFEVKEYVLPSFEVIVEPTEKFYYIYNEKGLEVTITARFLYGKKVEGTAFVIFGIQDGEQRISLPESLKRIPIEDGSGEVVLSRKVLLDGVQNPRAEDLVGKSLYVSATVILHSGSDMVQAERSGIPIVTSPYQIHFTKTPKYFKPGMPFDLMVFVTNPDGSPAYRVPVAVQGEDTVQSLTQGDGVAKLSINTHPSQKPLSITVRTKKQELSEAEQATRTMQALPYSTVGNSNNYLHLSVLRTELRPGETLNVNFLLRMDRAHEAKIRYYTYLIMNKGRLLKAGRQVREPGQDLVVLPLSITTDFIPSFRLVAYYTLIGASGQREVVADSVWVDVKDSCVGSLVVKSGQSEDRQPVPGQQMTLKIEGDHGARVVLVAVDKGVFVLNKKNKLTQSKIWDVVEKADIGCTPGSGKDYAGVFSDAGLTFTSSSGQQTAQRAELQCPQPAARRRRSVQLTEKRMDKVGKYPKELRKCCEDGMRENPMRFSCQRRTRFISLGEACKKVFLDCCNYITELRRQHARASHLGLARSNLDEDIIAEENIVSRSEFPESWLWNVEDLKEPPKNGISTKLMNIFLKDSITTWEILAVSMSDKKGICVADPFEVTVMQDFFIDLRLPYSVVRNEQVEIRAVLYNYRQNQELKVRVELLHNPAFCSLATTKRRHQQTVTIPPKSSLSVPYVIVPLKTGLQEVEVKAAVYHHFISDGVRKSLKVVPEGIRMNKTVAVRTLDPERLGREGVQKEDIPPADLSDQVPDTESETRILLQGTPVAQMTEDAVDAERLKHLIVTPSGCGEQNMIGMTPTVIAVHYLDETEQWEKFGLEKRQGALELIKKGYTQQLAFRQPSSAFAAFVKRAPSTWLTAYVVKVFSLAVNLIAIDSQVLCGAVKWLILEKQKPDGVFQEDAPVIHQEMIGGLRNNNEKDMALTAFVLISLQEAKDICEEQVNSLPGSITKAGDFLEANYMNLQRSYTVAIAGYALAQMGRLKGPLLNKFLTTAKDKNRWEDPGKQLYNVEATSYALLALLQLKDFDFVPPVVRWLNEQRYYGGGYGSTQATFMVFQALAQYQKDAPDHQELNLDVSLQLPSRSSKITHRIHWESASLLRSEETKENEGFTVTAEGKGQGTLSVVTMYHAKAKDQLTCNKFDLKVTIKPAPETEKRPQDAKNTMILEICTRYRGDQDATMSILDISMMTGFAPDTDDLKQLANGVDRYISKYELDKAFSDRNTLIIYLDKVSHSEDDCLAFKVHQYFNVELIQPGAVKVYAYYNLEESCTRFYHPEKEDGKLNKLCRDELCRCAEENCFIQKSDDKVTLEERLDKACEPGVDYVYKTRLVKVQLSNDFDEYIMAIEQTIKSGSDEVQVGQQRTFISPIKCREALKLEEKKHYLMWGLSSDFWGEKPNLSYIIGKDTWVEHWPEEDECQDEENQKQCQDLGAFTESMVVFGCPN
T1 sequence (P01024 23-667 limits assumed): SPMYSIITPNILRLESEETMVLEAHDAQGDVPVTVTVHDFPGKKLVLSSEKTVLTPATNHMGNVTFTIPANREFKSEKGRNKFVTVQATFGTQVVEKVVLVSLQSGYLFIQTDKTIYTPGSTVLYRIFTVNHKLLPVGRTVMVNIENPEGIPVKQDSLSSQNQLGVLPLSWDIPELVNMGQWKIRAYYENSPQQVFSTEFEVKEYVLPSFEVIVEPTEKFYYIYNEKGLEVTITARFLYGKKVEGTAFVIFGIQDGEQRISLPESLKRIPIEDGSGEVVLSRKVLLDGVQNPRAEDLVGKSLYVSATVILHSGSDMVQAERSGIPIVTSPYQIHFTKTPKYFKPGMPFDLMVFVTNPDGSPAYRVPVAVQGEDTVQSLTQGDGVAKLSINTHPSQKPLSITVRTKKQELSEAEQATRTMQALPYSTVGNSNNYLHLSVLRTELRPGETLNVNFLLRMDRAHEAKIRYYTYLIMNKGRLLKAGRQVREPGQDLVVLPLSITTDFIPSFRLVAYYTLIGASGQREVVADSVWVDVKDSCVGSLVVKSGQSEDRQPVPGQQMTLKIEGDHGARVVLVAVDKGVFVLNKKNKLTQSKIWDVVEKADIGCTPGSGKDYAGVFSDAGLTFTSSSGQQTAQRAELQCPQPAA
T1 sequence (P01024 749-1663 partner limits assumed): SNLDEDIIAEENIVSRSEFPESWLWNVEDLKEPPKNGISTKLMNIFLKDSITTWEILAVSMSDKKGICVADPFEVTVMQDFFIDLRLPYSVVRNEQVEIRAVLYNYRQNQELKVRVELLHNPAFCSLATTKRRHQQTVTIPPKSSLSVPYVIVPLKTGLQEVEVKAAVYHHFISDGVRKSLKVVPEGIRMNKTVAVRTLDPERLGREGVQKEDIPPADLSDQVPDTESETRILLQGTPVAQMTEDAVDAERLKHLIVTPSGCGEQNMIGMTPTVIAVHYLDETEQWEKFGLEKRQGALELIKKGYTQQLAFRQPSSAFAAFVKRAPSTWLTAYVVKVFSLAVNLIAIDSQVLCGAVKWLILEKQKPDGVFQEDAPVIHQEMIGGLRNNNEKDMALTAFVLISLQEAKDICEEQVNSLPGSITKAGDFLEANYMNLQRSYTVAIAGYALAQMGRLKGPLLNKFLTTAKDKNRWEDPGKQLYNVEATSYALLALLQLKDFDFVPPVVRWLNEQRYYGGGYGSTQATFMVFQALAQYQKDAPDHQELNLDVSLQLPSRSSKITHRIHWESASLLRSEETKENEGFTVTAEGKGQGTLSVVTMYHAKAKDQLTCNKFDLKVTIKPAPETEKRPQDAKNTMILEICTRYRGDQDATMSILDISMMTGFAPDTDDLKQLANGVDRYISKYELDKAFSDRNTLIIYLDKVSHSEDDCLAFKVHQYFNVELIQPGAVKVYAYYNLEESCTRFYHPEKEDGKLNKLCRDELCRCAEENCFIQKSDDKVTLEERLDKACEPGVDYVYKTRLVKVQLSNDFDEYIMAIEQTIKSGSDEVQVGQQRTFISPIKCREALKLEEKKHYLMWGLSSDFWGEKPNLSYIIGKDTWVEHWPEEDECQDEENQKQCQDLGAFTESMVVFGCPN

| SMILES | IC50 [1] [nM] | solubility at 5 min [2, 7] [µg/mL] | Hydrophobicity Retention Time [2] [min] | ka: association rate (C3b [4]) | Kd (C3b [4]) [nM] | koff (C3b [4]) [s⁻¹] | other results |
| --- | --- | --- | --- | --- | --- | --- | --- |
| CC[C@H](C)[C@H](NC(C)=O)C(=O)N[C@H]1CSSC[C@@H](C(=O)N[C@H](C(N)=O)[C@@H](C)O)NC(=O)[C@H](CCCNC(=N)N)NC(=O)[C@H](Cc2c[nH]cn2)NC(=O)[C@H](C)NC(=O)CNC(=O)[C@H](Cc2c[nH]c3ccccc23)NC(=O)[C@H](CC(=O)O)NC(=O)[C@H](CCC(N)=O)NC(=O)[C@H](Cc2cn(C)c3ccccc23)NC(=O)[C@H](C(C)C)NC1=O [4(1MeW), reference compound] | 132 ± 7 | 3500 (≈ 2150 µM) | 5.09 | – | – | – | – |
| CC[C@H](C)[C@H](NC(C)=O)C(=O)N[C@H]1CSSC[C@@H](C(=O)N(C)[C@H](C(N)=O)[C@@H](C)CC)NC(=O)[C@H](CCCNC(=N)N)NC(=O)[C@H](Cc2c[nH]cn2)NC(=O)[C@H](C)NC(=O)CN(C)C(=O)[C@H](Cc2c[nH]c3ccccc23)NC(=O)[C@H](CC(=O)O)NC(=O)[C@H](CCC(N)=O)NC(=O)[C@H](Cc2cn(C)c3ccccc23)NC(=O)[C@H](C(C)C)NC1=O [Cp20, reference compound] | – | – | 5.33 | – | – | – | solubility at 5 min ([2]; Dulbecco's phosphate buffered saline (DPBS)): 2700 µg/mL (≈ 1620 µM); Solubility WFI ([2]; water for injection, OD (280 nm) at saturation, acetate form): 13000 µg/mL (≈ 7790 µM); ka: association rate (C3b [3]): 1.9 10^6/Ms; kd: dissociation rate (C3b [3]): 4.0 10^−3/s; Kd (C3b [3]; read-out: KD: binding constant from SPR): 2.4 nM |
| CC[C@H](C)[C@H](NC(=O)[C@@H](C)N)C(=O)N[C@H]1CSSC[C@@H](C(=O)N(C)[C@H](C(N)=O)[C@@H](C)CC)NC(=O)[C@H](CCCNC(=N)N)NC(=O)[C@H](Cc2c[nH]cn2)NC(=O)[C@H](C)NC(=O)CN(C)C(=O)[C@H](Cc2c[nH]c3ccccc23)NC(=O)[C@H](CC(=O)O)NC(=O)[C@H](CCC(N)=O)NC(=O)[C@H](Cc2cn(C)c3ccccc23)NC(=O)[C@H](C(C)C)NC1=O [compound 18] | – | – | – | 1.4 ± 0.3 10^6/Ms | 2.5 ± 0.4 | 0.0034 ± 0.0004 | – |
| CC[C@H](C)[C@H](NC)C(=O)N[C@H]1CSSC[C@@H](C(=O)N(C)[C@H](C(N)=O)[C@@H](C)CC)NC(=O)[C@H](CCCNC(=N)N)NC(=O)[C@H](Cc2c[nH]cn2)NC(=O)[C@H](C)NC(=O)CN(C)C(=O)[C@H](Cc2c[nH]c3ccccc23)NC(=O)[C@H](CC(=O)O)NC(=O)[C@H](CCC(N)=O)NC(=O)[C@H](Cc2cn(C)c3ccccc23)NC(=O)[C@H](C(C)C)NC1=O [peptide 1] | 180 ± 17 | – | – | 1.3 ± 0.3 10^6/Ms | 18.6 ± 3.5 | 0.0248 ± 0.0073 | Binding affinity by SPR, in words (C3b [4]; compared with Cp40 (peptide 14)): high binding affinity |
| CC[C@H](C)[C@H](NC(=O)CN)C(=O)N[C@H]1CSSC[C@@H](C(=O)N(C)[C@H](C(N)=O)[C@@H](C)CC)NC(=O)[C@H](CCCNC(=N)N)NC(=O)[C@H](Cc2c[nH]cn2)NC(=O)[C@H](C)NC(=O)CN(C)C(=O)[C@H](Cc2c[nH]c3ccccc23)NC(=O)[C@H](CC(=O)O)NC(=O)[C@H](CCC(N)=O)NC(=O)[C@H](Cc2cn(C)c3ccccc23)NC(=O)[C@H](C(C)C)NC1=O [peptide 2] (H-GICV[Trp(1-Me)]QDW[Sar]AHRC[NMeI]-NH2; disulfide 3-13) | 113 ± 16 | – | – | 1.2 ± 0.3 10^6/Ms | 2.5 ± 0.5 | 0.0029 ± 0.0002 | – |
| CC[C@H](C)[C@H](NC(=O)CNC)C(=O)N[C@H]1CSSC[C@@H](C(=O)N(C)[C@H](C(N)=O)[C@@H](C)CC)NC(=O)[C@H](CCCNC(=N)N)NC(=O)[C@H](Cc2c[nH]cn2)NC(=O)[C@H](C)NC(=O)CN(C)C(=O)[C@H](Cc2c[nH]c3ccccc23)NC(=O)[C@H](CC(=O)O)NC(=O)[C@H](CCC(N)=O)NC(=O)[C@H](Cc2cn(C)c3ccccc23)NC(=O)[C@H](C(C)C)NC1=O [peptide 3, Sar-Ile-[Cys-Val-Trp(Me)-Gln-Asp-Trp-Sar-Ala-His-Arg-Cys]-mIle-NH2] | 82 ± 14 | 6900 (≈ 4070 µM) | 4.60 | 1.9 ± 0.5 10^6/Ms | 1.6 | 0.0029 ± 0.0003 | half-life (in vivo): 5 h; Plasma half-life [5]: 10.1 h; Fraction of peptide co-eluted with C3 (C3): 88.0%; Fraction of peptide co-eluted with C3c (C3): 4.5%; Fraction of peptide located in the flow-through (C3): 7.5%; solubility ([2]; water for injection): > 50000 µg/mL; remaining at 120 h, 20 μM [6]: > 55% |
| CC[C@H](C)[C@H](NC(=O)[C@@H](N)Cc1ccc(O)cc1)C(=O)N[C@H]1CSSC[C@@H](C(=O)N(C)[C@H](C(N)=O)[C@@H](C)CC)NC(=O)[C@H](CCCNC(=N)N)NC(=O)[C@H](Cc2c[nH]cn2)NC(=O)[C@H](C)NC(=O)CN(C)C(=O)[C@H](Cc2c[nH]c3ccccc23)NC(=O)[C@H](CC(=O)O)NC(=O)[C@H](CCC(N)=O)NC(=O)[C@H](Cc2cn(C)c3ccccc23)NC(=O)[C@H](C(C)C)NC1=O [peptide 4] | 72 ± 10 | – | – | 2.1 ± 0.3 10^6/Ms | – | – | – |
| CC[C@H](C)[C@@H](C(N)=O)N(C)C(=O)[C@@H]1CSSC[C@H](NC(=O)[C@H](Cc2c[nH]c3ccccc23)NC(C)=O)C(=O)N[C@@H](C(C)C)C(=O)N[C@@H](Cc2cn(C)c3ccccc23)C(=O)N[C@@H](CCC(N)=O)C(=O)N[C@@H](CC(=O)O)C(=O)N[C@@H](Cc2c[nH]c3ccccc23)C(=O)N(C)CC(=O)N[C@@H](C)C(=O)N[C@@H](Cc2c[nH]cn2)C(=O)N[C@@H](CCCNC(=N)N)C(=O)N1 [peptide 19] (Ac-WCV[Trp(1-Me)]QDW[Sar]AHRC[NMeI]-NH2; disulfide 2-12) | – | < 200 | – | 3.8 ± 0.3 10^6/Ms | 0.5 | 0.0017 ± 0.0003 | solubility ([2]; PBS): < 100 µM |
| CC[C@H](C)[C@@H](C(N)=O)N(C)C(=O)[C@@H]1CSSC[C@H](NC(=O)CNC(=O)[C@@H](N)Cc2ccc(O)cc2)C(=O)N[C@@H](C(C)C)C(=O)N[C@@H](Cc2cn(C)c3ccccc23)C(=O)N[C@@H](CCC(N)=O)C(=O)N[C@@H](CC(=O)O)C(=O)N[C@@H](Cc2c[nH]c3ccccc23)C(=O)N(C)CC(=O)N[C@@H](C)C(=O)N[C@@H](Cc2c[nH]cn2)C(=O)N[C@@H](CCCNC(=N)N)C(=O)N1 [peptide 20] (H-YGCV[Trp(1-Me)]QDW[Sar]AHRC[NMeI]-NH2; disulfide 3-13) | – | – | – | 2.1 ± 0.3 10^6/Ms | 3.5 ± 0.3 | 0.0073 ± 0.0014 | – |
